Values quoted from earlier work, collected in patent US5908840A, “Hetero-biaryl-pyridoquinazolinone derivatives as anti-cancer agents” (American Cyanamid Company, priority 1997, dated 1999).

What was measured:
[1] = tested on: P388; details: Denny et al., Mutation Research 232: 233 (1990)
[2] = Denny et al., Mutation Research 232: 233 (1990)
[3] = Denny et al.; Ebeid et al.

CN(C)CCNC(=O)c1cccn2c(=O)c3ccccc3nc12 [I, N-[2-(dimethylamino)ethyl]-11-oxo-11H-pyrido[2,1-b]quinalzoline-6-carboxamide]
activity in a P388 mouse model [1]: inactive
mutagenic activity [2]: mutagenic activity
in vitro activity [3]: some in vitro activity
